Measured values reported in US10294202B2, “Pyrrolidinones as herbicides” (FMC Corporation, priority 2013, dated 2019).

Key:
johnsongrass = experiment: Test C pre-/postemergence herbicide test; format: in vivo, Sorghum halepense
Method in brief: (§1)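 Visual rating, 0 (no effect) to 100 (complete control), versus untreated controls after 13 to 15 days in the greenhouse. Pre: seeds in loam/sand, sprayed at planting. Post: 1- to 4-leaf plants (2 to 18 cm) in peat-based mix. Compounds in non-phytotoxic solvent plus surfactant.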

velvetleaf = experiment: Test C pre-/postemergence herbicide test; format: in vivo, Abutilon theophrasti
Method in brief: as §1

barnyardgrass = experiment: Test C pre-/postemergence herbicide test; format: in vivo, Echinochloa crus-galli
Method in brief: as §1

oat, wild = experiment: Test C pre-/postemergence herbicide test; format: in vivo, Avena fatua; details: Postemergence
Method in brief: as §1

crabgrass, large = experiment: Test C pre-/postemergence herbicide test; format: in vivo, Digitaria sanguinalis
Method in brief: as §1

waterhemp = experiment: Test C pre-/postemergence herbicide test; format: in vivo, Amaranthus rudis
Method in brief: as §1

giant foxtail = experiment: Test A pre-/postemergence herbicide test; format: in vivo, Setaria faberii
Method in brief: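 Seeds sown in loam soil/sand blend received a preemergence directed soil spray of test chemical in non-phytotoxic solvent with surfactant; postemergence plants (2–10 cm, one- to two-leaf stage) were sprayed with the same formulation. After about 10 days in greenhouse, injury was rated visually versus untreated controls, 0 (no effect) to 100 (complete control).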

ryegrass, Italian = experiment: Test C pre-/postemergence herbicide test; format: in vivo, Lolium multiflorum
Method in brief: as §1

ragweed = experiment: Test C pre-/postemergence herbicide test; format: in vivo, Ambrosia elatior
Method in brief: as §1

[1] = Postemergence, 8 g ai/ha, scale 0 to 100 (0 no effect, 100 complete control)
[2] = Postemergence, 16 g ai/ha, scale 0 to 100 (0 no effect, 100 complete control)
[3] = Postemergence, 31 g ai/ha, scale 0 to 100 (0 no effect, 100 complete control)
[4] = Postemergence, 62 g ai/ha, scale 0 (no effect) to 100 (complete control)
[5] = Preemergence, 31 g ai/ha, scale 0 to 100, 0 is no effect and 100 is complete control
[6] = Preemergence, 62 g ai/ha, scale 0 to 100 (0 no effect, 100 complete control)
[7] = Preemergence, 8 g ai/ha, scale 0 to 100
[8] = Preemergence, 16 g ai/ha, scale 0 to 100

CN1CC(c2ccc(F)cc2)C(C(=O)Nc2cccc(F)c2F)C1=O (stereo not shown) [Compound 271]
Plant response rating, Johnsongrass (johnsongrass; [1]): 10
Plant response rating, Johnsongrass (johnsongrass; [2]): 10
Plant response rating, Johnsongrass (johnsongrass; [3]): 10
Plant response rating, Johnsongrass (johnsongrass; [4]): 10
Johnsongrass plant response rating (johnsongrass; [5]): 0
Johnsongrass plant response rating (johnsongrass; [6]): 10
Plant response rating, Johnsongrass (johnsongrass; [7]): 0
Plant response rating, Johnsongrass (johnsongrass; [8]): 0
Plant response rating, Velvetleaf (velvetleaf; [1]): 0
Plant response rating, Velvetleaf (velvetleaf; [2]): 0
Plant response rating, Velvetleaf (velvetleaf; [3]): 5
Plant response rating, Velvetleaf (velvetleaf; [4]): 5
Velvetleaf plant response rating (velvetleaf; [5]): 0
Velvetleaf plant response rating (velvetleaf; [6]): 10
Plant response rating, Velvetleaf (velvetleaf; [7]): 0
Plant response rating, Velvetleaf (velvetleaf; [8]): 0
Plant response rating, Barnyardgrass (barnyardgrass; [1]): 0
Plant response rating, Barnyardgrass (barnyardgrass; [2]): 0
Plant response rating, Barnyardgrass (barnyardgrass; [3]): 0
Plant response rating, Barnyardgrass (barnyardgrass; [4]): 0
Barnyardgrass plant response rating (barnyardgrass; [5]): 90
Barnyardgrass plant response rating (barnyardgrass; [6]): 95
Plant response rating, Barnyardgrass (barnyardgrass; [7]): 0
Plant response rating, Barnyardgrass (barnyardgrass; [8]): 75
Plant response rating, Oat, Wild (oat, wild; 8 g ai/ha, scale 0 to 100 (0 no effect, 100 complete control)): 0
Plant response rating, Oat, Wild (oat, wild; 16 g ai/ha, scale 0 to 100 (0 no effect, 100 complete control)): 0
Plant response rating, Oat, Wild (oat, wild; 31 g ai/ha, scale 0 to 100 (0 no effect, 100 complete control)): 0
Plant response rating, Oat, Wild (oat, wild; 62 g ai/ha, scale 0 (no effect) to 100 (complete control)): 0
Plant response rating, Crabgrass, Large (crabgrass, large; [1]): 0
Plant response rating, Crabgrass, Large (crabgrass, large; [2]): 0
Plant response rating, Crabgrass, Large (crabgrass, large; [3]): 5
Plant response rating, Crabgrass, Large (crabgrass, large; [4]): 5
Crabgrass, Large plant response rating (crabgrass, large; [5]): 95
Crabgrass, Large plant response rating (crabgrass, large; [6]): 100
Plant response rating, Crabgrass, Large (crabgrass, large; [7]): 50
Plant response rating, Crabgrass, Large (crabgrass, large; [8]): 90
Plant response rating, Waterhemp (waterhemp; [1]): 0
Plant response rating, Waterhemp (waterhemp; [2]): 0
Plant response rating, Waterhemp (waterhemp; [3]): 0
Plant response rating, Waterhemp (waterhemp; [4]): 5
Waterhemp plant response rating (waterhemp; [5]): 0
Waterhemp plant response rating (waterhemp; [6]): 35
Plant response rating, Waterhemp (waterhemp; [7]): 0
Plant response rating, Waterhemp (waterhemp; [8]): 0
Plant response rating, Foxtail, Giant (giant foxtail; Postemergence, 125 g ai/ha, 0 to 100 scale, 0 is no effect, 100 is complete control): 90
Plant response rating, Foxtail, Giant (giant foxtail; Postemergence, 500 g ai/ha, 0 to 100 scale (0 no effect, 100 complete control)): 90
Plant response rating, Foxtail, Giant (giant foxtail; Preemergence, 125 g ai/ha, 0 to 100 scale where 0 is no effect and 100 is complete control): 90
Plant response rating, Foxtail, Giant (giant foxtail; preemergence, 500 g ai/ha, 0 to 100 scale, 0 is no effect and 100 is complete control): 90
Plant response rating, Ryegrass, Italian (ryegrass, Italian; [1]): 0
Plant response rating, Ryegrass, Italian (ryegrass, Italian; [2]): 0
Plant response rating, Ryegrass, Italian (ryegrass, Italian; [3]): 0
Plant response rating, Ryegrass, Italian (ryegrass, Italian; [4]): 0
Ryegrass, Italian plant response rating (ryegrass, Italian; [5]): 0
Ryegrass, Italian plant response rating (ryegrass, Italian; [6]): 10
Plant response rating, Ryegrass, Italian (ryegrass, Italian; [7]): 0
Plant response rating, Ryegrass, Italian (ryegrass, Italian; [8]): 0
Plant response rating, Ragweed (ragweed; [1]): 0
Plant response rating, Ragweed (ragweed; [2]): 15
Plant response rating, Ragweed (ragweed; [3]): 25
Plant response rating, Ragweed (ragweed; [4]): 40
Ragweed plant response rating (ragweed; [5]): 0
Ragweed plant response rating (ragweed; [6]): 10
Plant response rating, Ragweed (ragweed; [7]): 0
Plant response rating, Ragweed (ragweed; [8]): 0
